Paper PMC6958523, “Metabolism and Pharmacokinetic Study of the Boron-Containing Prodrug of Belinostat (ZL277), a Pan HDAC Inhibitor with Enhanced Bioavailability” (Pharmaceuticals, 2019)

Experiments:
[1] = Drug and metabolite concentrations in MCF-7 xenograft breast tumor tissues of treated mice; assay type: in vivo; conditions: breast tumor xenograft in mice treated with ZL277
Description: Four to six week old female ovariectomized Nu/Nu mice, implanted subcutaneously with 17β-Estradiol pellets, were injected with MCF-7 cells harvested in the exponential growth phase to grow the breast tumors. On day 15 after tumor formation, the mice were treated with vehicle, belinostat, at 10 mg/kg/day, or ZL277 at 10 mg/kg/day, by subcutaneous injection. On the last day of the study, the tumors were collected and frozen for analysis.
(§1) Plasma, urine, or feces samples were processed following protocols published previously. These samples were injected on the Hypersil GOLD C18 column (1.8 µm, 2.1 × 50 mm) with UHPLC ultimate 3000 from Dionex, coupled with a […] mass spectrometer, to quantitate the concentration of the main metabolites of ZL277. The 10 µL samples were run with the gradient starting at 0.3 mL/min from 2% mobile phase B (acetonitrile with 0.05% formic acid) and 98% mobile phase A (water with 0.05% formic acid) until 1 min, up to 30% B at 3 min, 45% B at 4.8 min, 100% B at 5.5 min, then back to 30% B until equilibration. SRM mode was used to detect ZL277 (pos 535.21→134.97), ZL277-B(OH)2-452 (neg 451.13→256.04), ZL277-424-OH (neg 423.07→317.04), belinostat (neg 317.02→245.05) or (pos 319.08→93.08), belinostat amide (pos 303.08→91.05), belinostat acid (neg 302.05→92.05), methylated belinostat (pos 333.09→239.92). The product scan in MS/MS mode was used to detect belinostat–sulfate (neg 397.02→97.02), and belinostat–glucoronate (pos 495.09→319.27). The […] was set at spray voltage at 3200 V, vaporizer temperature at 365 °C, sheath gas pressure at 33 psi, auxiliary gas pressure at 10 psi, and capillary temperature at 350 °C. Additional experimental details can be found in Figures S1 and S2, and Tables S1–S8.

[2] = Metabolites of ZL277 in urine and fecal samples from treated mice; assay type: in vivo; conditions: for metabolite detected in Urine: mice after IP injection of ZL277; for relative abundance among metabolites in feces / relative abundance among metabolites in urine: mice treated with ZL277
Description: (§2) Four to six-week-old female ovariectomized Nu/Nu mice (Genotype: Homozygous genotype, homozygous for Foxn1), purchased from Charles River Laboratories (Wilmington, MA, USA), were used for the study of ZL277 metabolites in vivo. Six mice in each group were given ethanol-dissolved ZL277 and belinostat, at a single dose of 10 mg/kg by intraperitoneal injection (IP). After IP administration, venous blood samples were collected at 1, 3, 6, and 24 h time points. Urine and fecal samples were collected for the time duration of 0–8 h, 8–24 h, 24–32 h, and 32–48 h after IP administration.
as §1
Sample preparation protocols: […]
(2) Feces sample preparation: The collected feces samples were weighed on an OHAUS Explorer balance. The internal standard of trans-tamoxifen-13C2,15N (0.5 ng/μL in methanol) was added to the feces samples based on 10 ng/g feces according to the weight of the feces collected. Methanol was added at the ratio of 4 mL/g feces. Then the samples were homogenized with a Power Gen 125 homogenizer (Fisher Scientific) and stored at - 20 °C overnight. After sonicating for 30 min, the samples were centrifuged with a Heraeus Megafuge16R centrifuge at 3000 RPM. The supernatant was dried at room temperature and resuspended with corresponding amount of methanol (200 μL methanol/g feces) for injection on the TSQ Vantage instrument.
(3) Urine sample preparation: Urine samples were thawed at room temperature and vortexed. 200 μL of the sample was transferred to a 1.5 mL Eppendorf microcentrifuge tube followed by adding 200 μL methanol and 10 μL of the 0.5 ng/μL trans-tamoxifen-13C2, 15N in methanol solution. After Vortaxing and centrifuging, the top supernatant was injected on the UPLC-TSQ Vantage mass spectrometer instrument for analysis.

[3] = Pharmacokinetics and in vivo metabolites of ZL277 in mice plasma after single IP dose; conditions: for metabolite detected in Plasma: mice after IP injection of ZL277
Description: as §2, §1
Sample preparation protocols:
(1) Plasma sample preparation: Plasma samples (100 μL) were extracted with methanol.
Internal standard (10 μL 0.5 ng/μL trans-tamoxifen-13C2, 15N in methanol), methanol
(0.5 mL) were added to each plasma sample. The mixtures were stored at −20 °C
overnight. Samples were sonicated for 10 min and then centrifuged on a Heraeus Fresco

MCF-7 tumor xenograft = tested on: MCF-7 tumor xenograft; set-up: method as in PMID 29456804; conditions: mice; cited from earlier work
[4] = In vitro sulfation of ZL277 in liver cytosol with PAPS; assay type: in vitro ADME; conditions: rat liver cytosol, 30 min
Description: The incubation of ZL277 with liver cytosols followed a similar procedure to the study of sulfation of ZB716 [23]. After termination of incubation with 300 µL MeOH, the final mixture was centrifuged. The supernatant was analyzed on the UHPLC-Q-Exactive instrument.
(§3) The samples from in vitro incubations were run on a Hypersil GOLD C18 column (1.8 µm, 2.1 × 50 mm) with UHPLC ultimate 3000 from Dionex coupled with one Q-Exactive HR mass spectrometer (Thermo Scientific, Waltham, MA, USA). The gradient started at 20% mobile phase B (Acetonitrile with 0.05% formic acid) and 80% mobile phase A (water with 0.05% formic acid), increased to 100% B in 4.5 min at 0.3 mL/min, stayed for 5 min, then came back to 30% B until equilibration. PRM mode or full scan mode was used to identify the interested metabolites.

[5] = In vitro metabolism of ZL277 in liver S9 fraction with NADPH; assay type: in vitro ADME; conditions: rat liver S9, NADPH, 1 h
Description: The incubation of ZL277 with liver S9 fractions followed the procedures of incubation with liver microsomes, as described previously. The pre-incubation solution consisted of 30 µL of potassium phosphate buffer (pH 7.4; 10X), 241.5 µL water, 15 µL of NADPH solution A, 3 µL of NADPH solution B, 7.5 µL rat liver S9 fractions. After incubation at 37 °C for 5 min in a 1.5 mL microcentrifuge vial, 3 µL of 10 mM ZL277 was added, mixed, and incubated at 37 °C for another 60 min in the incubator. Then, 300 µL MeOH was added to terminate the reaction. After centrifugation, the supernatant was analyzed on the UHPLC, coupled to a Q-Exactive high-resolution mass spectrometer.
as §3

MCF-7 = tested on: MCF-7; set-up: method as in PMID 29456804; conditions: cited from earlier work
MDA-MB-231 = tested on: MDA-MB-231; set-up: method as in PMID 29456804; conditions: cited from earlier work

Row | Structure (SMILES) | metabolite detected in Tumor [1] | metabolite detected in Urine [2] | relative abundance among metabolites in feces [2] | relative abundance among metabolites in urine [2] | metabolite detected in Plasma [3] | other results
1 | O=C(O)/C=C/c1cccc(S(=O)(=O)Nc2ccccc2)c1 [Belinostat acid, belinostat acid] | found | detected | dominantly | dominant components | detected | –
2 | NC(=O)/C=C/c1cccc(S(=O)(=O)Nc2ccccc2)c1 [Belinostat amide, belinostat amide] | found | detected | – | – | detected | –
3 | O=C(/C=C/c1cccc(S(=O)(=O)Nc2ccccc2)c1)NO [Belinostat, belinostat] | found | detected | major metabolites | major components | detected | effect on growth of MCF-7 tumor xenograft (MCF-7 tumor xenograft): only inhibited tumor growth
4 | O=C(/C=C/c1cccc(S(=O)(=O)Nc2ccccc2)c1)NOS(=O)(=O)O [Belinostat–sulfate] | – | – | – | – | – | sulfate conjugate found after incubation of ZL277 [4]: No peak
5 | CONC(=O)/C=C/c1cccc(S(=O)(=O)Nc2ccccc2)c1 [Methylated belinostat, methylated belinostat] | found | detected | – | – | detected | –
6 | O=C(/C=C/c1cccc(S(=O)(=O)Nc2ccccc2)c1)NOCc1ccc(B(O)O)cc1 [ZL277-B(OH)2-452] | – | – | major metabolites | major components | – | relative abundance among drug-related forms in plasma ([3]; mice treated with ZL277): predominant form
7 | O=C(/C=C/c1cccc(S(=O)(=O)Nc2ccccc2)c1)NOCc1ccc(OS(=O)(=O)O)cc1 [ZL277-OH-424-sufate] | – | – | – | – | – | sulfate conjugate found after incubation of ZL277 [4]: detected
8 | O=C(/C=C/c1cccc(S(=O)(=O)Nc2ccccc2)c1)NOCc1ccc(O)cc1 [ZL277-OH-424] | – | – | major metabolites | major components | – | metabolite found after incubation of ZL277 with liver S9 fraction [5]: major oxidative metabolite
9 | CC1(C)OB(c2ccc(CONC(=O)/C=C/c3cccc(S(=O)(=O)Nc4ccccc4)c3)cc2)OC1(C)C [ZL277] | – | – | – | – | – | metabolite found after incubation of ZL277 with liver S9 fraction [5]: not found; antiproliferative activity compared with belinostat (MCF-7): slightly weaker; bioavailability compared to belinostat ([3]; mice, 10 mg/kg IP): superior; effect on growth of MCF-7 tumor xenograft (MCF-7 tumor xenograft): caused tumor regression; antiproliferative activity compared with belinostat (MDA-MB-231): slightly weaker
